Experimental data taken from patent US9937185B2, “Imidazopyridine compounds and uses thereof” (NEOMED INSTITUTE, priority 2013, dated 2018).

Tested on: rat FCA 96 hr paw model of inflammatory pain, heat hyperalgesia
Test: Rat FCA 96 hr paw model of inflammatory pain: heat hyperalgesia (Plantar Test)
Format: in vivo
Conditions: oral dosing 0.3-1-3-10-20 μmol/kg, 96 h after FCA
Method: (§1) One of the compounds of the present invention was evaluated in an in vivo model of inflammatory pain.
(§2) Male Sprague-Dawley rats (Charles River, St-Constant, Qc, CAN) weighing 200-225 g were utilized for the animal experiment studies. The animals were group-housed in polycarbonate, ventilated cages (filter top) in a controlled environment room (12-h light/dark cycle, 20.5-23.5° C., relative humidity: 40-70%) with food (14% Protein Rodent Maintenance Diet, Harlan Teklad, Madisson, Wis., USA) and water ad libidum.
Inflammation was induced by injection of a single 40 μl Freund's complete adjuvant (FCA) intra-plantar injection into the rat's left hindpaw. All experiments were conducted 96h after FCA administration. […]
Heat hyperalgesia (Plantar Test) was assessed using a Paw Thermal Stimulator to apply a controlled heat to the plantar surface of the affected paw. […] The heat source and timer were then turned on simultaneously; when the animal withdrew the hind paw the number of seconds was recorded. […]
Satellite animals were used to monitor the free plasma concentration of example 15 at the doses and time points used in the nociceptive tests. Free plasma EC50 values in behavioral studies were determined from 4-point concentration-response curves using non-linear regression and a sigmoidal variable slope logistic model (Prism 4.03, GraphPad Software Inc., USA).

SMILES	reversal of heat hyperalgesia
CNC(=O)c1cc(F)c(-c2nc3cc(C)ccn3c2C[C@H]2CN(C(=O)OC)CCO2)c(F)c1 [Example 15, (S)-methyl-2-((2-(2,6-difluoro-4-(methylcarbamoyl)phenyl)-7-methylimidazo[1,2-a]pyridin-3-yl)methyl)morpholine-4-carboxylate]	free plasma concentration dependent reversal

Tested on: rat FCA 96 hr paw model of inflammatory pain, mechanical hyperalgesia
Test: Rat FCA 96 hr paw model of inflammatory pain: mechanical hyperalgesia (Ugo Basile analgesy meter)
Format: in vivo
Conditions: oral dosing 0.3-1-3-10-20 μmol/kg, 96 h after FCA
Method: as §1, §2
Inflammation was induced by injection of a single 40 μl Freund's complete adjuvant (FCA) intra-plantar injection into the rat's left hindpaw. All experiments were conducted 96h after FCA administration. Twenty-four hours prior to behavioral testing animals were brought to the laboratory for acclimatization to the new environment. Animals were sacrificed immediately after data acquisition.
Mechanical hyperalgesia was assessed using the Ugo Basile analgesy meter (Ugo Basile, Comerio, Italy) Animals were gently restrained, and a steadily increasing pressure was applied to the dorsal surface of a hind paw via a probe with a dome-shaped tip (diameter of 1 mm). The pressure required to elicit paw withdrawal was determined. An assay cut off was set at 295 g. […] Paw withdrawal thresholds were calculated as the mean of the two values. […]

SMILES	reversal of mechanical hyperalgesia
CNC(=O)c1cc(F)c(-c2nc3cc(C)ccn3c2C[C@H]2CN(C(=O)OC)CCO2)c(F)c1 [Example 15, (S)-methyl-2-((2-(2,6-difluoro-4-(methylcarbamoyl)phenyl)-7-methylimidazo[1,2-a]pyridin-3-yl)methyl)morpholine-4-carboxylate]	free plasma concentration dependent reversal

Target: T1, hP2X3 (human Purinergic P2X receptors subtype 3) (Homo sapiens, UniProt P56373)
T1 construct: expressed in transfected cells; host or cells: RLE cells (rat liver endothelium, ATCC)
T1 sequence (P56373 1-397): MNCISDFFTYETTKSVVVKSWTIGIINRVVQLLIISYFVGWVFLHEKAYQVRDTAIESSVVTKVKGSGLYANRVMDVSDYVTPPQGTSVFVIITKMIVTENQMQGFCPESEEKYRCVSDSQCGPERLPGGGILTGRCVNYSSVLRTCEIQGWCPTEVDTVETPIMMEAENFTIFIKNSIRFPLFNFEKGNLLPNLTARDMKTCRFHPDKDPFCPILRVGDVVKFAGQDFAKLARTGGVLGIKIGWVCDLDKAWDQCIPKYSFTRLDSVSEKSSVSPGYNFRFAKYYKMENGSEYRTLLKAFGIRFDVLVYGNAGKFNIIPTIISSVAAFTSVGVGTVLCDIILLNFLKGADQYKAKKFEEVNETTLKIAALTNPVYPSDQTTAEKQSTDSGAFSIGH
Test: Fluo-4 calcium mobilization assay (FDSS7000), antagonists at human P2X3 receptor in RLE/hP2X3 cells
Format: cell-based
Conditions: RLE cells stably expressing hP2X3; 20 min preincubation; 2 uM ATP
Method: The antagonist properties of compounds in the present invention were assayed as inhibitors of intracellular calcium increase induced by activation of hP2X3 (human Purinergic P2X receptors subtype 3, accession number AB016608 for clone A and accession number NM_002559 for clone B), expressed in RLE cells (rat liver […], ATCC. The RLE/hP2X3 cells were grown in William's medium 1× (Gibco, 12551-032), supplemented with 10% Fetal bovine serum (Wisent, 090850), 2 mM L-Glutamine (Wisent, 609-065-EL), and 600 μg/mL Geneticin G-418 (Wisent, 61234) in a humidified incubator (5% CO2 and 37° C.).
Fluo-4 assay on FDSS7000 (Hamamatsu) was performed using cryopreserved RLE cells stably expressing hP2X3 plated in 384 well plates, 24 hr before the experiment at a density appropriate for obtaining the desired final confluence. After processing the cell plates with Fluo-4 and performing a subsequent incubation followed by washing steps, a double addition was carried out. The first addition included the test compounds diluted in HBSS buffer containing 2 mM CaCl2 preincubated for 20 min before a second addition. The second addition included 2 uM of ATP. Calcium mobilization was measured with the FDSS7000 over a time lapse of 3 min, and fluorescent counts were exported for analysis. […] Hill coefficients and % inhibitions can also be determined.

IC50	SMILES
3 nM	CNC(=O)c1cc(F)c(-c2nc3cc(C)ccn3c2C[C@H]2CN(C(C)=O)CCO2)c(F)c1 [Example 32]
84 nM	CNC(=O)c1ccc(-c2nc3cc(C)ccn3c2CC2CCN(C(=O)OC)C2)c(C)c1 (stereo not shown) [Example 41]
4 nM	CNC(=O)c1ccc(-c2nc3cc(C)ccn3c2C[C@H]2CN(C(C)=O)CCO2)c(C)c1 [Example 20]
10 nM	CNC(=O)c1ccc(-c2nc3cc(C)c(F)cn3c2C[C@H]2CN(C(C)=O)CCO2)c(C)c1 [Example 39]
7 nM	CNC(=O)c1ccc(-c2nc3cc(C)ccn3c2C[C@H]2CN(C(=O)OC)CCO2)c(C)c1 [Example 21]
6 nM	CCC(=O)N1CCO[C@@H](Cc2c(-c3cc(F)c(C(=O)NC)cc3C)nc3cc(C)ccn23)C1 [Example 17]
10 nM	CNC(=O)c1cc(C)c(-c2nc3cc(C)ccn3c2C[C@H]2CN(C(=O)OC)CCO2)cc1F [Example 24]
7 nM	CNC(=O)c1cc(C)c(-c2nc3cc(C)ccn3c2C[C@H]2CN(C(C)=O)CCO2)cc1F [Example 18]
87 nM	CNC(=O)c1ccc(-c2nc3cc(C)ccn3c2C[C@@H]2CN(C(C)=O)CCO2)c(C)c1 [Example 47]
158 nM	CNC(=O)c1cc(C)c(-c2nc3cc(C)ccn3c2C[C@@H]2CN(C(C)=O)CCO2)cc1F [Example 19]
103 nM	CNC(=O)c1ccc(-c2nc3cc(C)ccn3c2CC2CCN(C(C)=O)C2)c(C)c1 (stereo not shown) [Example 44]
7 nM	CNC(=O)c1ccc(-c2nc3cc(Cl)ccn3c2C[C@H]2CN(C(C)=O)CCO2)c(C)c1 [Example 25]
45 nM	CNC(=O)c1ccc(-c2nc3cc(C)ccn3c2C[C@@H]2CN(C(=O)OC)CCO2)c(C)c1 [Example 22]
5 nM	CCC(=O)N1CCO[C@@H](Cc2c(-c3ccc(C(=O)NC)cc3C)nc3cc(C)ccn23)C1 [Example 31]
111 nM	CNC(=O)c1ccc(-c2nc3cc(Cl)ccn3c2C[C@@H]2CN(C(C)=O)CCO2)c(C)c1 [Example 27]
11 nM	CNC(=O)c1ccc(-c2nc3cc(C)ccn3c2CC2CCCN(C(=O)OC)C2)c(C)c1 (stereo not shown) [Example 37]
10 nM	CNC(=O)c1ccc(-c2nc3cc(C)ccn3c2CC2CCCN(C(C)=O)C2)c(C)c1 (stereo not shown) [Example 38]
16 nM	CCC(=O)N1CCO[C@H](Cc2c(-c3c(F)cc(C(=O)NC)cc3F)nc3cc(C)ccn23)C1 [Example 35]
18 nM	CNC(=O)c1cc(F)c(-c2nc3cc(C)ccn3c2C[C@H]2CN(C(C)=O)CCO2)cc1F [Example 23]
3 nM	CCC(=O)N1CCO[C@@H](Cc2c(-c3c(F)cc(C(=O)NC)cc3F)nc3cc(C)ccn23)C1 [Example 16]
59 nM	CNC(=O)c1ccc(-c2nc3cc(C)ccn3c2CC2CC(C)N(C(C)=O)C2)c(C)c1 (stereo not shown) [Example 42]
26 nM	CNC(=O)c1ccc(-c2nc3cc(C)ccn3c2CC2CCN(C(=O)OC)CC2)c(C)c1 [Example 45, methyl 4-((7-methyl-2-(2-methyl-4-(methylcarbamoyl)phenyl)imidazo[1,2-a]pyridin-3-yl)methyl)piperidine-1-carboxylate]
5 nM	CNC(=O)c1cc(F)c(-c2nc3cc(Cl)ccn3c2C[C@H]2CN(C(C)=O)CCO2)c(F)c1 [Example 29]
6 nM	CCC(=O)N1CCO[C@@H](Cc2c(-c3c(F)cc(C(=O)NC)cc3F)nc3cc(Cl)ccn23)C1 [Example 30]
7 nM	CCNC(=O)c1ccc(-c2nc3cc(C)ccn3c2C[C@H]2CN(C(C)=O)CCO2)c(C)c1 [Example 33]
11 nM	CCC(=O)N1CCO[C@@H](Cc2c(-c3cc(F)c(C(=O)NC)cc3C)nc3cc(Cl)ccn23)C1 [Example 26]
6 nM	CNC(=O)c1cc(F)c(-c2nc3cc(Cl)ccn3c2C[C@H]2CN(C(=O)OC)CCO2)c(F)c1 [Example 28]
66 nM	CNC(=O)c1ccc(-c2nc3cc(C)ccn3c2CC2CCN(C(C)=O)CC2)c(C)c1 [Example 46, 4-(3-((1-acetylpiperidin-4-yl)methyl)-7-methylimidazo[1,2-a]pyridin-2-yl)-N,3-dimethylbenzamide]
114 nM	CNC(=O)c1ccc(-c2nc3cc(C#N)ccn3c2C[C@H]2CN(C(=O)OC)CCO2)c(C)c1 [Example 36]
